We go through twelve compounds from US11952365B2, “Anti-viral compounds” (Aligos Therapeutics, Inc., priority 2020, dated 2024).

One may read the IC50 as the midpoint of a concentration-inhibition curve. One may read the EC50 as the concentration at which the effect is half-maximal.

One series deals with T1, human cathepsin L (Homo sapiens, UniProt P07711).
T1 construct: purchased R&D Systems
Description: cathepsin L assay. The series is classed as biochemical. Conditions: 10 pM human cathepsin L, Z-FR-AMC 2 μM, class symbols. An outline of the steps:
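Human cathepsin L at 10 pM was preincubated 30 min with compound, then reaction started with Z-FR-AMC (2 μM final). Fluorescence (355/460 nm) read every 2 min for 30 min; IC50 from four-parameter curve fit.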

Series [1] relates to human beta-coronavirus OC43. Description: microbe, parasite or virus in culture. The series is classed as cell-based. Conditions: Betacoronavirus 1, OC43, HeLa, 144 h, OC43 in HeLa cells, 6 days at 33° C., read-out: EC50.
Series [2] deals with SARS-CoV-2-GHB-03021/2020. As to the kind of experiment: SARS-CoV-2 Infection Model in Huh7 Cells. The series is classed as cell-based. Conditions: Severe acute respiratory syndrome coronavirus 2, Huh-7, 96 h, SARS-CoV-2, day 4 p.i., MTS.
Another series concerns the target 3CLpro (Severe acute respiratory syndrome coronavirus 2, UniProt P0DTD1). As to the kind of experiment: SARS-CoV-2 3CLpro protease assay (duplex, SAMDI-MS). The format is biochemical. Further details: For the duplex assay, 3CLpro and HRV3C was added. Conditions: 3CLpro, 30 mins preincubation, read-out: SARS-Cov-2 IC50.
The nature of series [3]: in vitro. Conditions: human.
Series [4] in a line: in vitro. Conditions: African green monkey, VeroE6 + CP (CC50), Vero E6-eGFP cells with CP-100356, absence of virus, MTS.
A further series has as its target HRV3C (Human rhinovirus 14, UniProt P03303). Description: HRV3C protease assay (duplex, SAMDI-MS). The format is biochemical, HRV. Conditions: HRV3C, 30 mins preincubation, read-out: HRV IC50. An outline of the steps:
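Duplex format with 3CLpro; 30 min enzyme–compound preincubation, 30 min reaction with two peptide substrates, ambient temp. Stop: 0.5% formic acid, neutralized with 1% NaHCO3 (finals). Readout SAMDI-MS, product AUC over internal standard AUC; four-parameter IC50.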

A short description of series [5]: Cytotoxicity plates without OC43 virus (cell-titer-glo). The series is classed as cell-based, human. Conditions: human; HeLa cells without OC43 virus, class symbols. An outline of the steps:
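HeLa cells seeded overnight, then treated with serially diluted compounds in 2% FBS EMEM, uninfected, in parallel with the OC43 antiviral plates. Incubated 6 days at 33 °C; viability read by CellTiter-Glo luminescence.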

The test system of series [6] is SARS-CoV-2-GHB-03021/2020. As to the kind of experiment: microbe, parasite or virus in culture. Conditions: Severe acute respiratory syndrome coronavirus 2, Vero C1008, 96 h; read-out: VeroE6 + CP (EC50). The series is classed as cell-based.

Each structure is given as a SMILES string. Read-outs that look alike come from different tables or passages of the source. Bounds are passed on as bounds.

With `CCOC(=O)c1cc(C(=O)N2C[C@@H]3CCC[C@@H]3[C@H]2C(=O)N[C@@H](C[C@@H]2CCNC2=O)C(=O)CO)[nH]c1C` [Compound 85, ethyl 5-[(1S,3aR,6aS)-1-{[(2S)-4-hydroxy-3-oxo-1-[(3S)-2-oxopyrrolidin-3-yl]butan-2-yl]carbamoyl}-hexahydro-1H-cyclopenta[c]pyrrole-2-carbonyl]-2-methyl-1H-pyrrole-3-carboxylate], the results for the IC50 on human cathepsin L, at 3CLpro (class symbols) and on HRV3C (class symbols) were ≥ 10 µM, 0.02 to 0.2 µM and 2 to 20 µM, respectively. The EC50 in series [1] (class symbols) lay in the range of 1 to 10 µM; in [2] (class symbols), 10 to 100 µM; in series [6], 1 to 10 µM. Also, the CC50 in the series “in vitro [3]” and in the series “in vitro [4]” (numeric bounds) was > 50 µM in each case. The CC50 at 6 days in series [5] was > 10 µM.
As to `COc1cccc2[nH]c(C(=O)N3C[C@@H]4CCC[C@@H]4[C@H]3C(=O)N[C@@H](C[C@@H]3CCNC3=O)C(=O)C(=O)N(C)C)cc12` [Compound 110], the IC50 on human cathepsin L was ≥ 10 µM; at 3CLpro (bound), > 10 µM; at HRV3C (bound) it was > 10 µM. In addition, the EC50 in [1] (bound) is > 10 µM; in series [2] (numeric bounds), > 50 µM; in series [6], > 50 µM. Besides, the CC50 in the series “in vitro [3]” and in “in vitro [4]” (numeric bounds) was > 50 µM throughout. The CC50 at 6 days in series [5] is > 10 µM.
Turning to `COc1cccc2[nH]c(C(=O)N3C[C@@H]4CCC[C@@H]4[C@H]3C(=O)N[C@@H](C[C@@H]3CCNC3=O)C(=O)C(=O)N[C@H]3CCOC3)cc12` [Compound 103], the IC50 is ≥ 10 µM at human cathepsin L, 0.02 to 0.2 µM on 3CLpro (class symbols) and 0.2 to 2 µM at HRV3C (class symbols). Moreover, the EC50 in [1] (bound) is > 10 µM; in [2] (class symbols), 10 to 100 µM; in series [6] it was 10 to 100 µM. For the same compound, the CC50 in the series “in vitro [3]” and in “in vitro [4]” (numeric bounds) was > 100 µM in each case. Further, the CC50 at 6 days in series [5] is > 10 µM.
Consider `COc1cccc2[nH]c(C(=O)N3C[C@]4(C[C@H]3C(=O)NC(C[C@@H]3CCCNC3=O)C(=O)C(=O)NC3CC3)CC4(F)F)cc12` (stereo partly drawn) [Compound 38, N-cyclopropyl-3-{[(3S,6S)-1,1-difluoro-5-(4-methoxy-1H-indole-2-carbonyl)-5-azaspiro[2.4]heptan-6-yl]formamido}-2-oxo-4-[(3S)-2-oxopiperidin-3-yl]butanamide], for which the values for the IC50 against human cathepsin L, at 3CLpro (class symbols) and at HRV3C (class symbols) were < 0.1 µM, 0.02 to 0.2 µM and 0.2 to 2 µM, respectively. Also, the EC50 in series [1] (class symbols) lay in the range of 0.1 to 1 µM; in series [2] (class symbols) it was 1 to 10 µM; in series [6], 1 to 10 µM. The CC50 in the series “in vitro [3]” and in the series “in vitro [4]” (numeric bounds) was > 100 µM in each case. Also, the CC50 at 6 days in [5] was > 10 µM.
Regarding `COc1cccc2[nH]c(C(=O)N3C[C@@H]4CCC[C@@H]4[C@H]3C(=O)NC(C[C@@H]3CCNC3=O)C(=O)C(=O)NCc3ccccc3)cc12` (stereo partly drawn) [Compound 16, 3-[[(1S,3aR,6aS)-2-(4-methoxy-1H-indole-2-carbonyl)-hexahydro-1H-cyclopenta[c]pyrrol-1-yl]formamido]-N-benzyl-2-oxo-4-[(3S)-2-oxopyrrolidin-3-yl]butanamide], the IC50 was ≥ 10 µM at human cathepsin L, 0.02 to 0.2 µM on 3CLpro (class symbols) and 0.2 to 2 µM at HRV3C (class symbols). Moreover, the EC50 in [1] (class symbols) lay within 0.1 to 1 µM; in [2] (class symbols), 1 to 10 µM; in series [6], 1 to 10 µM. In addition, the CC50 in the series “in vitro [3]” and in “in vitro [4]” (class symbols) was > 10 µM each time. The CC50 at 6 days in series [5] was > 10 µM.
Turning to `C[C@@H]1C[C@@H](C(=O)N[C@@H](C[C@@H]2CCNC2=O)C(=O)C(=O)NCc2ccccc2)N(C(=O)c2cc3ccccc3[nH]2)C1` [Compound 25], the IC50 fell in the range of 0.1 to 1 µM against human cathepsin L, 2 to 20 µM at 3CLpro (class symbols) and 2 to 20 µM at HRV3C (class symbols). For the same compound, the values for the EC50 in series [1] (class symbols), in series [2] (class symbols) and in [6] were 1 to 10 µM, 10 to 100 µM and 10 to 100 µM, respectively. The CC50 in “in vitro [3]” and in the series “in vitro [4]” (numeric bounds) was > 100 µM in each case. The CC50 at 6 days in series [5] was > 10 µM.
Take `CC(C)C(=O)OCC(=O)[C@H](C[C@@H]1CCNC1=O)NC(=O)[C@@H]1[C@H]2CCC[C@H]2CN1C(=O)c1cc2c(Cl)cc(Cl)cc2[nH]1` [Compound 125, (3S)-3-{[(1S,3aR,6aS)-2-(4,6-dichloro-1H-indole-2-carbonyl)-hexahydro-1H-cyclopenta[c]pyrrol-1-yl]formamido}-2-oxo-4-[(3S)-2-oxopyrrolidin-3-yl]butyl 2-methylpropanoate]: the IC50 against human cathepsin L was ≥ 10 µM; on 3CLpro (class symbols) it was 0.2 to 2 µM; at HRV3C (bound), > 10 µM. For the same compound, the 50% effective concentration (EC50) in [1] (class symbols) was < 0.1 µM; in series [2] (class symbols) it was < 1 µM; in series [6], < 1 µM. Moreover, the CC50 is > 10 µM in the series “in vitro [3]” and > 50 µM in the series “in vitro [4]” (numeric bounds). For the same compound, in series [5], the CC50 at 6 days is > 10 µM.
Take `O=C1NCC[C@H]1C[C@H](NC(=O)[C@@H]1[C@H]2CCC[C@H]2CN1C(=O)c1cc2c([nH]1)CCS2(=O)=O)C(=O)CO` [Compound 159, (1S,3aR,6aS)-2-{1,1-dioxo-2H,3H,4H-1λ6-thieno[3,2-b]pyrrole-5-carbonyl}-N-[(2S)-4-hydroxy-3-oxo-1-[(3S)-2-oxopyrrolidin-3-yl]butan-2-yl]-hexahydro-1H-cyclopenta[c]pyrrole-1-carboxamide]: the figures for the IC50 against human cathepsin L, on 3CLpro (class symbols) and on HRV3C (bound) were ≥ 10 µM, 0.02 to 0.2 µM and > 10 µM, respectively. Besides, the EC50 in [1] (bound) is > 10 µM; in [2] (numeric bounds), > 10 µM; in series [6] it was 10 to 100 µM. Also, the CC50 in the series “in vitro [3]” and in the series “in vitro [4]” (numeric bounds) was > 50 µM in each case. For the same compound, the CC50 at 6 days in [5] was > 10 µM.
Regarding `O=C(NC1CC1)C(=O)[C@H](C[C@@H]1CCNC1=O)NC(=O)[C@@H]1CC2(CCN1C(=O)c1cc3ccccc3s1)CC2` [Compound 165], the IC50 lay within 1 to 10 µM against human cathepsin L, 0.02 to 0.2 µM on 3CLpro (class symbols) and 0.2 to 2 µM on HRV3C (class symbols). Moreover, the values for the EC50 in series [1] (class symbols), in [2] (class symbols) and in series [6] were 0.1 to 1 µM, < 1 µM and < 1 µM, respectively. The CC50 in the series “in vitro [3]” was > 10 µM; in the series “in vitro [4]” (numeric bounds), > 50 µM. For the same compound, the CC50 at 6 days in series [5] is > 10 µM.
Consider `O=C(NCc1ccccc1)C(=O)C(C[C@@H]1CCNC1=O)NC(=O)[C@@H]1C[C@@H](c2ccccc2)CN1C(=O)c1cc2ccccc2[nH]1` (stereo partly drawn) [Compound 7], for which the IC50 was < 0.1 µM against human cathepsin L, 0.2 to 2 µM on 3CLpro (class symbols) and 0.2 to 2 µM on HRV3C (class symbols). The EC50 in series [1] (class symbols) was in the range of 0.1 to 1 µM; in [2] (class symbols), 1 to 10 µM; in [6] it was 1 to 10 µM. The CC50 in “in vitro [3]” and in “in vitro [4]” (class symbols) was > 10 µM in each case. For the same compound, the CC50 at 6 days in series [5] was > 10 µM.
With `COc1cccc2[nH]c(C(=O)N3C[C@@H]4CCC[C@@H]4[C@H]3C(=O)N[C@@H](CN3CC[C@H](O)C3=O)C(=O)C(=O)NC3CC3)cc12` [Compound 115, (1S,3aR,6aS)—N—((S)-4-(cyclopropylamino)-1-((S)-3-hydroxy-2-oxopyrrolidin-1-yl)-3,4-dioxobutan-2-yl)-2-(4-methoxy-1H-indole-2-carbonyl)octahydrocyclopenta[c]pyrrole-1-carboxamide], the IC50 against human cathepsin L was ≥ 10 µM; at 3CLpro (class symbols), 2 to 20 µM; at HRV3C (bound) it was > 10 µM. For the same compound, the EC50 in [1] (bound) was > 10 µM; in [2] (numeric bounds), > 50 µM; in series [6] it was > 50 µM. In addition, the CC50 was > 10 µM in “in vitro [3]” and > 50 µM in “in vitro [4]” (numeric bounds). In addition, the CC50 at 6 days in [5] was > 10 µM.
`CC1(C)CCN(C(=O)c2cc3ccccc3[nH]2)[C@H](C(=O)NC(C[C@@H]2CCNC2=O)C(=O)C(=O)NCc2ccccc2)C1` (stereo partly drawn) [Compound 26, (2S)—N-(4-(benzylamino)-3,4-dioxo-1-((S)-2-oxopyrrolidin-3-yl)butan-2-yl)-1-(1H-indole-2-carbonyl)-4,4-dimethylpiperidine-2-carboxamide]: the IC50 at human cathepsin L is < 0.1 µM; on 3CLpro (class symbols), 0.02 to 0.2 µM; at HRV3C (class symbols), 2 to 20 µM. Also, the EC50 in [1] (class symbols) was 0.1 to 1 µM; in series [2] (class symbols), 10 to 100 µM; in series [6], 10 to 100 µM. Moreover, the CC50 in “in vitro [3]” and in the series “in vitro [4]” (numeric bounds) was > 100 µM throughout. Also, in series [5], the CC50 at 6 days is > 10 µM.
